Literature values in PMC5408581, “Using X-ray Crystallography, Biophysics, and Functional Assays to Determine the Mechanisms Governing T-cell Receptor Recognition of Cancer Antigens” (Journal of Visualized Experiments : JoVE, 2017).
Like-named read-outs stand apart in the source and are kept apart here. Each block holds one sequence with its values, some of them ahead of it.

Columns and labels:
[1] = target: PMEL17 TCR (TRAV21 TRBV7-3); set-up: method as in PMID 26917722; conditions: SPR, CM5 chip, 25 °C, table reprinted
[2] = target: gp100 TCR (TRAV17 TRBV19); set-up: method as in PMID 26917722; conditions: SPR, CM5 chip, 25 °C, table reprinted; for Kd: read-out: gp100 TCR TRAV17 TRBV19 Affinity KD
[3] = peptide refolded with biotin-tagged HLA-A*0201/β2m and coupled via streptavidin (~500-600 RU), ten serial dilutions of soluble TCR, 30 µL/min, equilibrium KD by nonlinear fit

PMEL17 TCR TRAV21 TRBV7-3 Affinity KD [1, 3]: No binding
gp100 TCR TRAV17 TRBV19 Affinity KD [2, 3]: No binding
Sequence: YLAPGPVTA [YLE-3A, with HLA-A*0201 called A2-YLE-3A]

Kd ([1]; read-out: PMEL17 TCR TRAV21 TRBV7-3 Affinity KD, peptide-HLA-A*0201 coupled via streptavidin, soluble TCR injected, bound given in mM): > 1 mM
Kd ([2]; peptide-HLA-A*0201 coupled via streptavidin, soluble TCR injected, bound given in mM): > 1 mM
Sequence: YLEPAPVTA [YLE-5A, with HLA-A*0201 called A2-YLE-5A]

Kd [2, 3]: 0.0265 ± 0.0023 mM
Sequence: YLEPGPVTA [presented by HLA-A*0201 it is called A2-YLE]

Kd [2, 3]: 0.0219 ± 0.0024 mM
Sequence: YLEPGPVTV [YLE-9V, with HLA-A*0201 called A2-YLE-9V]
